Data reported in patent US20220401381A1, “PERIPHERALLY ACTING CANNABIDIOL (CBD)-CONTAINING COMPOUNDS AND USES THEREOF FOR ENHANCING FEMALE SEXUAL FUNCTION OR TREATING FEMALE SEXUAL DISORDERS” (Vella Bioscience, Inc., priority 2019, published 2022).
Entries after “also recorded” stand apart in the source; their conditions may differ.

How the values were obtained:
[1] = subcutaneous injection 45 minutes prior to sexual activity; cited from earlier work
[2] = test system: rat vaginal smooth muscle tissue (intact/sham rats); assay: EFS-induced contraction of vaginal strips from intact/sham rats, isolated organ bath, isometric tension
Description: (§1) The following in vitro methodology was utilized to examine the concentration-dependent response of rat vaginal tissue, both proximal and distal, to CBD following contraction by electrical field stimulation (similar to efferent neurostimulation in vivo)
(§2) Female rats either intact (n=6) or bilaterally oophorectomized (OVX) (n=6 rats); the animals were euthanized 6 weeks post OVX and vagina dissected. Then, the vagina was cut into 2 halves, proximal and distal, and 4 strips max per region cut in circular direction were prepared and mounted as shown in FIG. 1.
(§3) The strips were excised from the tissue samples and connected to force transducers for isometric tension recording. Organ baths were filled with Krebs buffer maintained at 37° C. and bubbled with 95% O2 and 5% CO2, pH 7.4.
Female rats without (n=6) prior bilateral oophorectomies were euthanized and the proximal and distal vaginal tissue was harvested and suspended in a classic organ bath infused at a physiological temperature, pH, and oxygen level. […] This was also true regardless of whether the tissue was from the proximal or distal vaginal tissue (FIG. 2(A-E)).

[3] = test system: rat vaginal smooth muscle tissue (OVX rats); assay: EFS-induced contraction of vaginal strips from oophorectomized (OVX) rats, isolated organ bath, isometric tension
Description: as §1, §2, §3
Female rats with (n=6) prior bilateral oophorectomies were euthanized and the proximal and distal vaginal tissue was harvested and suspended in a classic organ bath infused at a physiological temperature, pH, and oxygen level. […] This was also true regardless of whether the tissue was from the proximal or distal vaginal tissue (FIG. 3(A-E)).

CCCC[C@H](NC(C)=O)C(=O)N[C@H]1CC(=O)NCCCC[C@@H](C(=O)O)NC(=O)[C@H](Cc2c[nH]c3ccccc23)NC(=O)[C@H](CCCN=C(N)N)NC(=O)[C@@H](Cc2ccccc2)NC(=O)[C@H](Cc2cnc[nH]2)NC1=O [bremelanotide]
side-effect: nausea, incidence [1]: 40%

C=C(C)[C@@H]1CCC(C)=C[C@H]1c1c(O)cc(CCCCC)cc1O [CBD, (−)-trans-cannabidiol]
relaxation (inhibition of EFS-induced contraction) of vaginal strips ([2]; intact/sham (non-oophorectomized) rats, proximal or distal tissue, CBD 1, 10 and 100 μg/ml, EFS 1 Hz to 48 Hz, vs vehicle): dramatic and significant dose-response relaxation; also recorded: significant relaxant effect
relaxant effect on distal vaginal smooth muscle tissue ([2]; intact/sham rat, distal, FIG. 4B): statistically significant, unexpected, peripheral, dose-dependent pharmacological relaxant effect
relaxant effect on proximal vaginal smooth muscle tissue ([2]; intact/sham rat, proximal, FIG. 4A): statistically significant, unexpected, peripheral, dose-dependent pharmacological relaxant effect
relaxant effect on distal vaginal smooth muscle tissue ([3]; OVX rat, distal, FIG. 5B): statistically significant, unexpected, peripheral, dose-dependent pharmacological relaxant effect
relaxant effect on proximal vaginal smooth muscle tissue ([3]; OVX rat, proximal, FIG. 5A): statistically significant, unexpected, peripheral, dose-dependent pharmacological relaxant effect
relaxation (inhibition of EFS-induced contraction) of vaginal strips ([3]; oophorectomized (OVX) rats, proximal or distal tissue, CBD 1, 10 and 100 μg/ml, EFS 1 Hz to 48 Hz, vs vehicle): dramatic and significant dose-response relaxation; also recorded: significant relaxant effect
